{"source": "patent US7139415B2", "about": "“Robotic microscopy systems” (The Regents of the University of California, priority 2001, dated 2006)", "key": {"GFP transfected neurons": {"test_system": "GFP transfected neurons", "format": "cell-based", "details": "in the presence of extracellular EtHD", "experimental": "(§1) If the “loss” of GFP corresponded to the death of a neuron, that the loss of GFP positive neurons could be quantified over time as a measure of neuronal survival. To test whether the “loss” of GFP corresponded to the death of a neuron, the loss of GFP in transfected neurons was measured at the same time as the loss of membrane integrity using a membrane impermeant nuclear dye, ethidium homodimer (EtHD). EtHD staining of cell nuclei is taken as a positive sign of death in the widely used “LIVE-DEAD” assay.\nFIG. 16A is a panel of photographs exemplifying application of an automated imaging system to the study of neuronal survival, and showing that loss of GFP fluorescence correlates with a loss of membrane integrity and nuclear staining with ethidium homodimer. […] Between 60 (not shown) and 75 minutes, GFP fluorescence is abruptly lost from one neuron and its nucleus stains positively for EtHD. Later, the other transfected neuron in the image loses GFP fluorescence and stains positively for EtHD. […] Thus, overall, the GFP fluorescence of particular neurons disappeared eventually but abruptly, and at that same moment, the nuclei of those neurons stained positively with EtHD (FIG. 16A). Thus, the loss of GFP fluorescence correlated well with one widely accepted measure of cell death."}, "[1]": {"test_system": "neurons transfected with GFP", "experiment": "Automated imaging of survival of GFP-transfected neurons", "format": "cell-based", "details": "kainate added 24 or 76 hours after transfection, compared with untreated sister culture", "experimental": "as §1\nNext, expression of the transfection marker GFP was tested for its affect on survival. FIG. 16E is a graph showing the results of a parallel experiment, in which the survival of transfected neurons in two sister cultures was compared. One culture was imaged once at the end of the experiment (hatched bar) and the other was imaged both a day after transfection and at the end of the experiment (solid bars). The two cultures show nearly identical survival. Finally, if this approach is a valid way to measure neuronal survival, it should be able to detect the effects of molecules known to regulate survival. First, the ability to detect the neurotoxicity of kainic acid was tested. […]\nFIG. 16C is a graph showing survival of transfected neurons in three sister cultures was monitored and compared. […]"}}}
{"smiles": "C=C(C)[C@H]1CN[C@H](C(=O)O)[C@H]1CC(=O)O", "note": "[kainic acid]", "values": [{"measurement": "morphology of GFP transfected neurons in response to the neurotoxin", "setting": "GFP transfected neurons", "value": "cell bodies of GFP transfected neurons rounded and swelled and their neurites began to retract"}, {"measurement": "neuronal survival (number of surviving GFP positive neurons)", "setting": "[1]", "value": "significant decrease in neuronal survival"}]}
